Assay results published in ChEMBL document CHEMBL4613212, “Insights of synthetic analogues of anti-leprosy agents” (Bioorg Med Chem, 2019).
In brackets after ≈: the same amount, converted by molar mass.

How the values were obtained:
Type in all cases: functional
Enterococcus faecalis [1] = assay: Antimicrobial activity against Enterococcus faecalis ATCC 29212 by broth microdilution assay
Staphylococcus aureus = assay: Antimicrobial activity against Staphylococcus aureus ATCC 25923 by broth microdilution assay
Enterococcus faecalis [2] = assay: Antimicrobial activity against Enterococcus faecalis ATCC 51922 by broth microdilution assay
Listeria monocytogenes = assay: Antimicrobial activity against Listeria monocytogenes ATCC 1911 by broth microdilution assay
Klebsiella pneumoniae = assay: Antimicrobial activity against Klebsiella pneumoniae 700603 by broth microdilution assay
Pseudomonas aeruginosa = assay: Antimicrobial activity against Pseudomonas aeruginosa ATCC 27853 by broth microdilution assay
Escherichia coli [3] = assay: Antimicrobial activity against Escherichia coli ATCC 35218 by broth microdilution assay
Escherichia coli [4] = assay: Antimicrobial activity against Escherichia coli ATCC 25922 by broth microdilution assay
[5] = system: Mycobacterium tuberculosis; assay: Antitubercular activity against Mycobacterium tuberculosis H37Rv ATCC 27294 incubated for 7 days by microplate alamar blue assay; conditions: H37Rv ATCC 27294, 168 h
[6] = system: Mycobacterium tuberculosis; assay: Antitubercular activity against Mycobacterium tuberculosis H37Rv ATCC 27294 assessed as growth inhibition at 6.25 ug/ml by microplate alamar blue assay relative to control
[7] = system: Mycobacterium tuberculosis; assay: Antitubercular activity against Mycobacterium tuberculosis H37Rv ATCC 27294 assessed as inhibition of [3H]-thymidine incorporation relative to control
Mycobacterium leprae = assay: Anti-leprotic activity against Mycobacterium leprae assessed as maximum bactericidal dilutions
[8] = system: Mycobacterium tuberculosis; assay: Antitubercular activity against Mycobacterium tuberculosis infected in mouse assessed as reduction in microbial load at 2 to 3 mg ip, pretreated for 48 to 72 hrs followed by microbial infection and subsequent compound dosing at 48 to 72 hrs post-infection measured 24 to 32 days post-infection relative to control; design: scale not given: the % may be the effect or the level left

Q: Which MIC (Enterococcus faecalis [1]) does the source give for `COc1ccc(/C=N/NC(=S)Nc2ccc(C(F)(F)F)cc2)cc1` here?
A: 400 µg/mL (≈ 1130 µM)

Q: What about the MIC (Staphylococcus aureus) of the same compound?
A: 400 µg/mL (≈ 1130 µM)

Q: And the MIC (Enterococcus faecalis [2])?
A: 400 µg/mL (≈ 1130 µM)

Q: And the MIC (Listeria monocytogenes)?
A: 800 µg/mL (≈ 2260 µM)

Q: And the MIC (Klebsiella pneumoniae)?
A: 400 µg/mL (≈ 1130 µM)

Q: What about the MIC (Pseudomonas aeruginosa) of the same compound?
A: 400 µg/mL (≈ 1130 µM)

Q: What about the MIC (Escherichia coli [3]) of the same compound?
A: 800 µg/mL (≈ 2260 µM)

Q: What about the MIC (Escherichia coli [4]) of the same compound?
A: 400 µg/mL (≈ 1130 µM)

Q: What about the MIC [5] of the same compound?
A: 200 µg/mL (≈ 566 µM)

Q: Which results are given for `c1coc(-c2ncnc3c2ncn3C2CCOCC2)c1`?
A: inhibition at 6.25 µg/mL [6]: 0%; inhibition (INH) [7]: 15%

Q: How did the inhibition at 6.25 µg/mL [6] turn out when `c1ccc(-c2ncnc3c2ncn3C2CCOCC2)cc1` was run?
A: 3%

Q: What about the “inhibition (INH)” value [7] of the same compound?
A: <10%

Q: How did the “fold change (FC)” value (Mycobacterium leprae) turn out when `CCCCCCCCCCC(C(=O)O)C1C=CCC1` (stereo unspecified) was run?
A: 167

Q: For `CCCCCCCCCC(C(=O)O)C1CCCCC1` (stereo unspecified), which “fold change (FC)” value (Mycobacterium leprae) is on record?
A: 190

Q: `CC(C)(C)c1cc2c(O)c(c1)Cc1cc(C(C)(C)C)cc(c1OCCOCCOCCOCCOCCOCCO)Cc1cc(C(C)(C)C)cc(c1O)Cc1cc(C(C)(C)C)cc(c1OCCOCCOCCOCCOCCOCCO)Cc1cc(C(C)(C)C)cc(c1O)Cc1cc(C(C)(C)C)cc(c1OCCOCCOCCOCCOCCOCCO)Cc1cc(C(C)(C)C)cc(c1O)Cc1cc(C(C)(C)C)cc(c1OCCOCCOCCOCCOCCOCCO)C2` was tested. Which Activity [8] did it give?
A: 20 - 50%

Q: How did the “fold change (FC)” value (Mycobacterium leprae) turn out when `CCCCCCCCCC(C(=O)O)C1CCCC1` (stereo unspecified) was run?
A: 111

Q: With `CC(C)(C)CC(C)(C)c1cc2c(O)c(c1)Cc1cc(C(C)(C)CC(C)(C)C)cc(c1OCCOCCOCCOCCOCCOCCO)Cc1cc(C(C)(C)CC(C)(C)C)cc(c1O)Cc1cc(C(C)(C)CC(C)(C)C)cc(c1OCCOCCOCCOCCOCCOCCO)Cc1cc(C(C)(C)CC(C)(C)C)cc(c1O)Cc1cc(C(C)(C)CC(C)(C)C)cc(c1OCCOCCOCCOCCOCCOCCO)Cc1cc(C(C)(C)CC(C)(C)C)cc(c1O)Cc1cc(C(C)(C)CC(C)(C)C)cc(c1OCCOCCOCCOCCOCCOCCO)C2` as the compound, how does the Activity [8] read?
A: 20 - 50%

Q: `O=S(=O)(O)c1cc2c(O)c(c1)Cc1cc(S(=O)(=O)O)cc(c1O)Cc1cc(S(=O)(=O)O)cc(c1O)Cc1cc(S(=O)(=O)O)cc(c1O)Cc1cc(S(=O)(=O)O)cc(c1O)Cc1cc(S(=O)(=O)O)cc(c1O)Cc1cc(S(=O)(=O)O)cc(c1O)Cc1cc(S(=O)(=O)O)cc(c1O)C2` was tested. Which Activity [8] did it give?
A: 50 - 80%

Q: `COCCOCCOCCOc1c2cc(C(C)(C)C)cc1Cc1cc(C(C)(C)C)cc(c1OCCOCCOCCOC)Cc1cc(C(C)(C)C)cc(c1OCCOCCOCCOC)Cc1cc(C(C)(C)C)cc(c1OCCOCCOCCOC)Cc1cc(C(C)(C)C)cc(c1OCCOCCOCCOC)Cc1cc(C(C)(C)C)cc(c1OCCOCCOCCOC)Cc1cc(C(C)(C)C)cc(c1OCCOCCOCCOC)Cc1cc(C(C)(C)C)cc(c1OCCOCCOCCOC)C2` was tested. Which Activity [8] did it give?
A: 80 - 100%

Q: `CCCCCCCCCCC(C(=O)O)C1CCCCC1` (stereo unspecified) was tested. Which “fold change (FC)” value (Mycobacterium leprae) did it give?
A: 180

Q: Which inhibition at 6.25 µg/mL [6] does the source give for `c1csc(-c2ncnc3c2ncn3C2CCOCC2)c1` here?
A: 0%

Q: And the “inhibition (INH)” value [7]?
A: 23%

Q: Which inhibition at 6.25 µg/mL [6] does the source give for `C=CCn1cnc2c(-c3ccco3)ncnc21` here?
A: 7%

Q: What about the “inhibition (INH)” value [7] of the same compound?
A: 11%

Q: With `FC(F)(F)c1ccc(NC(=S)N/N=C/c2ccc(Br)cc2)cc1` as the compound, how does the MIC (Enterococcus faecalis [1]) read?
A: 400 µg/mL (≈ 994 µM)

Q: What about the MIC (Staphylococcus aureus) of the same compound?
A: 400 µg/mL (≈ 994 µM)

Q: And the MIC (Enterococcus faecalis [2])?
A: 400 µg/mL (≈ 994 µM)

Q: What about the MIC (Listeria monocytogenes) of the same compound?
A: 400 µg/mL (≈ 994 µM)

Q: And the MIC (Klebsiella pneumoniae)?
A: 400 µg/mL (≈ 994 µM)

Q: What about the MIC (Pseudomonas aeruginosa) of the same compound?
A: 400 µg/mL (≈ 994 µM)

Q: What about the MIC (Escherichia coli [3]) of the same compound?
A: 800 µg/mL (≈ 1990 µM)

Q: What about the MIC (Escherichia coli [4]) of the same compound?
A: 400 µg/mL (≈ 994 µM)

Q: And the MIC [5]?
A: 400 µg/mL (≈ 994 µM)

Q: What does the source list for `FC(F)(F)c1ccc(/C=N/NC(=S)Nc2ccc(C(F)(F)F)cc2)cc1`?
A: MIC (Enterococcus faecalis [1]): 100 µg/mL (≈ 256 µM); MIC (Staphylococcus aureus): 400 µg/mL (≈ 1020 µM); MIC (Enterococcus faecalis [2]): 400 µg/mL (≈ 1020 µM); MIC (Listeria monocytogenes): 800 µg/mL (≈ 2040 µM); MIC (Klebsiella pneumoniae): 400 µg/mL (≈ 1020 µM); MIC (Pseudomonas aeruginosa): 400 µg/mL (≈ 1020 µM); MIC (Escherichia coli [3]): 400 µg/mL (≈ 1020 µM); MIC (Escherichia coli [4]): 400 µg/mL (≈ 1020 µM); MIC [5]: 200 µg/mL (≈ 511 µM)

Q: Which Activity [8] does the source give for `CC(C)(C)c1cc2c(O)c(c1)Cc1cc(C(C)(C)C)cc(c1OCCOCCOCCOCCOCCOCCO)Cc1cc(C(C)(C)C)cc(c1O)Cc1cc(C(C)(C)C)cc(c1OCCOCCOCCOCCOCCOCCO)Cc1cc(C(C)(C)C)cc(c1O)Cc1cc(C(C)(C)C)cc(c1OCCOCCOCCOCCOCCOCCO)C2` here?
A: 20 - 50%

Q: `CCCCCCCC(CCC1CCCC1)C(=O)O` (stereo unspecified) was tested. Which “fold change (FC)” value (Mycobacterium leprae) did it give?
A: 170

Q: How did the MIC (Enterococcus faecalis [1]) turn out when `CN(C)c1ccc(/C=N/NC(=S)Nc2ccc(C(F)(F)F)cc2)cc1` was run?
A: 400 µg/mL (≈ 1090 µM)

Q: And the MIC (Staphylococcus aureus)?
A: 400 µg/mL (≈ 1090 µM)

Q: And the MIC (Enterococcus faecalis [2])?
A: 400 µg/mL (≈ 1090 µM)

Q: What about the MIC (Listeria monocytogenes) of the same compound?
A: 400 µg/mL (≈ 1090 µM)

Q: And the MIC (Klebsiella pneumoniae)?
A: 400 µg/mL (≈ 1090 µM)

Q: And the MIC (Pseudomonas aeruginosa)?
A: 400 µg/mL (≈ 1090 µM)

Q: And the MIC (Escherichia coli [3])?
A: 400 µg/mL (≈ 1090 µM)

Q: And the MIC (Escherichia coli [4])?
A: 400 µg/mL (≈ 1090 µM)

Q: What about the MIC [5] of the same compound?
A: 200 µg/mL (≈ 546 µM)

Q: What does the source list for `FC(F)(F)c1ccc(NC(=S)N/N=C/c2ccccc2)cc1`?
A: MIC (Enterococcus faecalis [1]): 200 µg/mL (≈ 619 µM); MIC (Staphylococcus aureus): 400 µg/mL (≈ 1240 µM); MIC (Enterococcus faecalis [2]): 400 µg/mL (≈ 1240 µM); MIC (Listeria monocytogenes): 400 µg/mL (≈ 1240 µM); MIC (Klebsiella pneumoniae): 400 µg/mL (≈ 1240 µM); MIC (Pseudomonas aeruginosa): 400 µg/mL (≈ 1240 µM); MIC (Escherichia coli [3]): 400 µg/mL (≈ 1240 µM); MIC (Escherichia coli [4]): 400 µg/mL (≈ 1240 µM); MIC [5]: 200 µg/mL (≈ 619 µM)

Q: Which results are given for `Cn1cnc2c(-c3ccco3)ncnc21`?
A: inhibition at 6.25 µg/mL [6]: 0%; inhibition (INH) [7]: <10%

Q: `CCCCCCCCCCCC(C(=O)O)C1CCCC1` (stereo unspecified) was tested. Which “fold change (FC)” value (Mycobacterium leprae) did it give?
A: 153

Q: `CC(C)(C)c1cc2c(OCCOCCOCCOCCOCCOCCOCCOCCOCCOCCOCCOCCO)c(c1)Cc1cc(C(C)(C)C)cc(c1OCCOCCOCCOCCOCCOCCOCCOCCOCCOCCOCCOCCO)Cc1cc(C(C)(C)C)cc(c1OCCOCCOCCOCCOCCOCCOCCOCCOCCOCCOCCOCCO)Cc1cc(C(C)(C)C)cc(c1OCCOCCOCCOCCOCCOCCOCCOCCOCCOCCOCCOCCO)Cc1cc(C(C)(C)C)cc(c1OCCOCCOCCOCCOCCOCCOCCOCCOCCOCCOCCOCCO)Cc1cc(C(C)(C)C)cc(c1OCCOCCOCCOCCOCCOCCOCCOCCOCCOCCOCCOCCO)Cc1cc(C(C)(C)C)cc(c1OCCOCCOCCOCCOCCOCCOCCOCCOCCOCCOCCOCCO)Cc1cc(C(C)(C)C)cc(c1OCCOCCOCCOCCOCCOCCOCCOCCOCCOCCOCCOCCO)C2` was tested. Which Activity [8] did it give?
A: 50 - 100%

Q: For `CC(C)(C)c1cc2c(O)c(c1)Cc1cc(C(C)(C)C)cc(c1O)Cc1cc(C(C)(C)C)cc(c1O)Cc1cc(C(C)(C)C)cc(c1O)Cc1cc(C(C)(C)C)cc(c1O)Cc1cc(C(C)(C)C)cc(c1O)Cc1cc(C(C)(C)C)cc(c1O)Cc1cc(C(C)(C)C)cc(c1O)C2`, which Activity [8] is on record?
A: 20 - 50%

Q: Which inhibition at 6.25 µg/mL [6] does the source give for `c1ccc(CCn2cnc3c(-c4ccco4)ncnc32)cc1` here?
A: 26%

Q: And the “inhibition (INH)” value [7]?
A: 53%

Q: How did the “fold change (FC)” value (Mycobacterium leprae) turn out when `CCCCCCCCCCC(C(=O)O)C1CCCC1` (stereo unspecified) was run?
A: 143
